Measurements from ChEMBL document CHEMBL1201862, “PubChem BioAssay data set” (2004).
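In this assay, cells in 96-well plates receive the compound at five concentrations for 48 hours. Endpoints are linearly interpolated between the surrounding concentrations. GI50 is the concentration that inhibits growth by half.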 Activity calls are given as the source filed them. No stated cut-off is given here; in the data, active = GI50 up to about 1.1 µM and inactive = higher.

Legend:
Assay in all cases: growth of human tumour cells (NCI), 48 h
XF498 = system: XF498
DMS-114 = system: DMS-114
SK-MEL-28 = system: SK-MEL-28
LOX IMVI = system: LOX IMVI
HT-29 = system: HT-29
OVCAR-8 = system: OVCAR-8
KM-20L2 = system: KM-20L2
SNB-75 = system: SNB-75
RXF 393 = system: RXF 393
HL-60 = system: HL-60
UO-31 = system: UO-31
DLD-1 = system: DLD-1
SF-268 = system: SF-268
NCI-H460 = system: NCI-H460
SR = system: SR

Measured: GI50

O=C(CCC(=O)Nc1ccccc1C(F)(F)F)N/N=C1\C(=N\NC(=O)CCC(=O)Nc2ccccc2C(F)(F)F)C(c2ccc3c(c2)OCO3)Oc2ccccc21 (stereo not given)
inactive: XF498 34.2 µM | DMS-114 2.74 µM | SK-MEL-28 > 100 µM | LOX IMVI 6.28 µM | HT-29 35.9 µM | OVCAR-8 7.87 µM | KM-20L2 97.1 µM | SNB-75 10 µM | RXF 393 11.8 µM | HL-60 3.4 µM | UO-31 5.64 µM | DLD-1 5.04 µM | SF-268 3.01 µM | NCI-H460 4.02 µM | SR 3.59 µM

CCCCCC1CC(C(C)=O)CN1c1ccc(F)cc1 (stereo not given)
inactive: XF498 21.1 µM | DMS-114 20.3 µM | SK-MEL-28 54.5 µM | LOX IMVI 28 µM | HT-29 30.8 µM | OVCAR-8 32.3 µM | KM-20L2 35.3 µM | SNB-75 25.5 µM | RXF 393 41 µM | HL-60 > 10 µM | UO-31 37.4 µM | DLD-1 32 µM | SF-268 32 µM | NCI-H460 44.4 µM | SR > 10 µM
